The numbers were not newly measured in US20180153879A1, “Solid Dispersion Comprising μ-Opioid Antagonists” (Sandoz AG, priority 2016, published 2018), which cites them from elsewhere.

For the series the following is noted: free base form, exposure to air.

For the compound `C=CCN1CC[C@]23c4c5ccc(O)c4O[C@H]2[C@@H](OCCOCCOCCOCCOCCOCCOCCOC)CC[C@@]3(O)[C@H]1C5` [naloxegol, (5α,6α)-17-allyl-6-(2,5,8,11,14,17,20-heptaoxadocosan-22-yloxy)-4,5-epoxymorphinan-3,14-diol], the oxidative stability entry is listed as “can undergo oxidative degradation upon exposure to air”.
